Consider 17 compounds from patent publication US20170355705A1 (GlaxoSmithKline Intellectual Property (No.2) Limited, priority 2014, published 2017).

This experiment addresses T1, SIRT1 (Homo sapiens, UniProt Q96EB6).
T1 sequence (Q96EB6 1-747): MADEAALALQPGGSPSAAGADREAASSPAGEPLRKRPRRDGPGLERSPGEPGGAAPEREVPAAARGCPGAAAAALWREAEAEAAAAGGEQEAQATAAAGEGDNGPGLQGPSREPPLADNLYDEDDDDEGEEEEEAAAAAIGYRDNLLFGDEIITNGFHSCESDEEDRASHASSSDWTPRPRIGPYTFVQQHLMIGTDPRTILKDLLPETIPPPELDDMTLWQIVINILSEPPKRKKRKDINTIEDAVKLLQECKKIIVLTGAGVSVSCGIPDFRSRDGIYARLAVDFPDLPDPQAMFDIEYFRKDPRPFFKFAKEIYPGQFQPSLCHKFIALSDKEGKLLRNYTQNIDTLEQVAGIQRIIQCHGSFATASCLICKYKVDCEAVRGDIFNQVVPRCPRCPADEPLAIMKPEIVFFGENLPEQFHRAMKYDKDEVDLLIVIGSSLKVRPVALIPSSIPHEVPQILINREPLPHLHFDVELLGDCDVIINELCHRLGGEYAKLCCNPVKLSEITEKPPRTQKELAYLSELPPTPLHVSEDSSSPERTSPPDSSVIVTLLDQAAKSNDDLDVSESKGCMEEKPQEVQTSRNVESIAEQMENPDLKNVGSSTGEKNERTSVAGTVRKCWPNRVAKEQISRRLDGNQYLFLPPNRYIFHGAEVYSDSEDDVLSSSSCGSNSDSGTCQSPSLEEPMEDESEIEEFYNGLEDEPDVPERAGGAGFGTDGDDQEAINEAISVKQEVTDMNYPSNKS
As to the kind of experiment: Trp mass spectrometry assay of SIRT1 activity (EC1.5, percent maximum activation). In kind it is biochemical. The settings on record: Trp mass spectrometry assay; for TRP Activity (EC1.5): EC1.5 = concentration giving 150% activation of SIRT1; for TRP MAX RESP (percent maximum fold activation): percent maximum activation of SIRT1. The gist of the method:
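Steps: recombinant SIRT1 (N-His, bacterial) and NAD with p53-derived, norleucine-substituted 5TMR peptide; add compound at several concentrations; incubate 25 min; stop with 10% formic acid; freeze; quantify OAADPR by mass spec against control lacking compound.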

Consider `Cc1cc(-c2ccc3c(n2)N(C(=O)Nc2cccc4nnc(C)cc24)[C@H]2CCN3C2)ccn1` [Example 153, (4S)-N-(3-methylcinnolin-5-yl)-7-(2-methylpyridin-4-yl)-3,4-dihydro-1,4-methanopyrido[2,3-b][1,4]diazepine-5(2H)-carboxamide], for which the “TRP Activity (EC1.5)” value is listed as “B (EC1.5 1-25 μM)” and the “TRP MAX RESP (percent maximum fold activation)” value was “A (Fold activation ≧150%)”.

Consider `Cc1cncc(-c2ccc3c(n2)N(C(=O)Nc2cnccn2)[C@H]2CCN3C2)c1` [Example 154, (4S)-7-(5-methylpyridin-3-yl)-N-(pyrazin-2-yl)-3,4-dihydro-1,4-methanopyrido[2,3-b][1,4]diazepine-5(2H)-carboxamide], for which the “TRP Activity (EC1.5)” value is reported as “B (EC1.5 1-25 μM)” and the “TRP MAX RESP (percent maximum fold activation)” value is on record as “A (Fold activation ≧150%)”.

For the compound `Cn1cc(-c2ccc3c(n2)N(C(=O)Nc2cnccn2)[C@H]2CCN3C2)cn1` [Example 155, (4S)-7-(1-methyl-1H-pyrazol-4-yl)-N-(pyrazin-2-yl)-3,4-dihydro-1,4-methanopyrido[2,3-b][1,4]diazepine-5(2H)-carboxamide], the “TRP Activity (EC1.5)” value is on record as “B (EC1.5 1-25 μM)” and the “TRP MAX RESP (percent maximum fold activation)” value is recorded as “A (Fold activation ≧150%)”.

Turning to `CCc1ccc(-c2ccc3c(n2)N(C(=O)Nc2cnccn2)[C@H]2CCN3C2)cn1` [Example 156, (4S)-7-(6-ethylpyridin-3-yl)-N-(pyrazin-2-yl)-3,4-dihydro-1,4-methanopyrido[2,3-b][1,4]diazepine-5(2H)-carboxamide], the “TRP Activity (EC1.5)” value is reported as “B (EC1.5 1-25 μM)” and the “TRP MAX RESP (percent maximum fold activation)” value is “A (Fold activation ≧150%)”.

On to `Cc1cc(-c2ccc3c(n2)N(C(=O)Nc2ccc4[nH]ncc4c2)[C@H]2CCN3C2)ccn1` [Example 157, (4S)-N-(1H-indazol-5-yl)-7-(2-methylpyridin-4-yl)-3,4-dihydro-1,4-methanopyrido[2,3-b][1,4]diazepine-5(2H)-carboxamide], for which the “TRP Activity (EC1.5)” value was “A (EC1.5<1 μM)” and the “TRP MAX RESP (percent maximum fold activation)” value is reported as “A (Fold activation ≧150%)”.

For `Cc1cc(-c2ccc3c(n2)N(C(=O)Nc2cccnn2)[C@H]2CCN3C2)ccn1` [Example 158, (4S)-7-(2-methylpyridin-4-yl)-N-(pyridazin-3-yl)-3,4-dihydro-1,4-methanopyrido[2,3-b][1,4]diazepine-5(2H)-carboxamide], the “TRP Activity (EC1.5)” value is on record as “B (EC1.5 1-25 μM)” and the “TRP MAX RESP (percent maximum fold activation)” value is “A (Fold activation ≧150%)”.

As for `Cc1cc(-c2ccc3c(n2)N(C(=O)Nc2cnccn2)[C@H]2CCN3C2)c(C)cn1` [Example 159, (4S)-7-(2,5-dimethylpyridin-4-yl)-N-(pyrazin-2-yl)-3,4-dihydro-1,4-methanopyrido[2,3-b][1,4]diazepine-5(2H)-carboxamide], the “TRP Activity (EC1.5)” value was “B (EC1.5 1-25 μM)” and the “TRP MAX RESP (percent maximum fold activation)” value is “A (Fold activation ≧150%)”.

For `O=C(Nc1cnccn1)N1c2nc(N3CCOCC3)ccc2N2CC[C@H]1C2` [Example 160, (4S)-7-morpholino-N-(pyrazin-2-yl)-3,4-dihydro-1,4-methanopyrido[2,3-b][1,4]diazepine-5(2H)-carboxamide], the “TRP Activity (EC1.5)” value is on record as “B (EC1.5 1-25 μM)” and the “TRP MAX RESP (percent maximum fold activation)” value was “A (Fold activation ≧150%)”.

`CCc1cnc(NC(=O)N2c3nc(-c4ccnc(C)c4)ccc3N3CC[C@H]2C3)cn1` [Example 161, (4S)-N-(5-ethylpyrazin-2-yl)-7-(2-methylpyridin-4-yl)-3,4-dihydro-1,4-methanopyrido[2,3-b][1,4]diazepine-5(2H)-carboxamide]: the “TRP Activity (EC1.5)” value is listed as “A (EC1.5<1 μM)” and the “TRP MAX RESP (percent maximum fold activation)” value is “A (Fold activation ≧150%)”.

Regarding `Cc1ncc(-c2ccc3c(n2)N(C(=O)Nc2cnccn2)[C@H]2CCN3C2)o1` [Example 162, (4S)-7-(2-methyloxazol-5-yl)-N-(pyrazin-2-yl)-3,4-dihydro-1,4-methanopyrido[2,3-b][1,4]diazepine-5(2H)-carboxamide], the “TRP Activity (EC1.5)” value is “B (EC1.5 1-25 μM)” and the “TRP MAX RESP (percent maximum fold activation)” value was “A (Fold activation ≧150%)”.

Regarding `Cc1cc(-c2ccc3c(n2)N(C(=O)Nc2cncnc2)[C@H]2CCN3C2)ccn1` [Example 163, (4S)-7-(2-methylpyridin-4-yl)-N-(pyrimidin-5-yl)-3,4-dihydro-1,4-methanopyrido[2,3-b][1,4]diazepine-5(2H)-carboxamide], the “TRP Activity (EC1.5)” value is recorded as “C (EC1.5>25 μM)” and the “TRP MAX RESP (percent maximum fold activation)” value is given as “A (Fold activation ≧150%)”.

Take `Cc1cc(-c2ccc3c(n2)N(C(=O)Nc2cnc(C4CC4)cn2)[C@H]2CCN3C2)ccn1` [Example 164, (4S)-N-(5-cyclopropylpyrazin-2-yl)-7-(2-methylpyridin-4-yl)-3,4-dihydro-1,4-methanopyrido[2,3-b][1,4]diazepine-5(2H)-carboxamide]: the “TRP Activity (EC1.5)” value is “B (EC1.5 1-25 μM)” and the “TRP MAX RESP (percent maximum fold activation)” value was “A (Fold activation ≧150%)”.

In the case of `Cc1ncc(-c2ccc3c(n2)N(C(=O)Nc2cnccn2)[C@H]2CCN3C2)cn1` [Example 165, (4S)-7-(2-methylpyrimidin-5-yl)-N-(pyrazin-2-yl)-3,4-dihydro-1,4-methanopyrido[2,3-b][1,4]diazepine-5(2H)-carboxamide], the “TRP Activity (EC1.5)” value was “B (EC1.5 1-25 μM)” and the “TRP MAX RESP (percent maximum fold activation)” value is listed as “A (Fold activation ≧150%)”.

For the compound `Cc1cc(-c2ccc3c(n2)N(C(=O)Nc2cncc(C4CC4)n2)[C@H]2CCN3C2)ccn1` [Example 166, (4S)-N-(6-cyclopropylpyrazin-2-yl)-7-(2-methylpyridin-4-yl)-3,4-dihydro-1,4-methanopyrido[2,3-b][1,4]diazepine-5(2H)-carboxamide], the “TRP Activity (EC1.5)” value is given as “A (EC1.5<1 μM)” and the “TRP MAX RESP (percent maximum fold activation)” value is “A (Fold activation ≧150%)”.

With `Cc1cc(-c2ccc3c(n2)N(C(=O)Nc2c[nH]nn2)[C@H]2CCN3C2)ccn1` [Example 167, (4S)-7-(2-methylpyridin-4-yl)-N-(1H-1,2,3-triazol-4-yl)-3,4-dihydro-1,4-methanopyrido[2,3-b][1,4]diazepine-5(2H)-carboxamide], the “TRP Activity (EC1.5)” value was “B (EC1.5 1-25 μM)” and the “TRP MAX RESP (percent maximum fold activation)” value is on record as “A (Fold activation ≧150%)”.

For the compound `Cc1cc(-c2ccc3c(n2)N(C(=O)N[C@@H](C)c2ccccn2)[C@H]2CCN3C2)ccn1` [Example 168, (4S)-7-(2-methylpyridin-4-yl)-N-((S)-1-(pyridin-2-yl)ethyl)-3,4-dihydro-1,4-methanopyrido[2,3-b][1,4]diazepine-5(2H)-carboxamide], the “TRP Activity (EC1.5)” value was “C (EC1.5>25 μM)” and the “TRP MAX RESP (percent maximum fold activation)” value is reported as “B (Fold Activation <150%)”.

As to `Cc1cc(-c2ccc3c(n2)N(C(=O)N[C@H](C)c2ccccn2)[C@H]2CCN3C2)ccn1` [Example 169, (4S)-7-(2-methylpyridin-4-yl)-N-((R)-1-(pyridin-2-yl)ethyl)-3,4-dihydro-1,4-methanopyrido[2,3-b][1,4]diazepine-5(2H)-carboxamide], the “TRP Activity (EC1.5)” value is reported as “C (EC1.5>25 μM)” and the “TRP MAX RESP (percent maximum fold activation)” value is given as “B (Fold Activation <150%)”.
